The values below come from PMC10619135, “Virtual screening, identification and in vitro validation of small molecule GDP-mannose dehydrogenase inhibitors” (RSC Chemical Biology, 2023).

Assay [1] has as its target T1, GDP-mannose dehydrogenase (GMD) (Pseudomonas aeruginosa, UniProt P11759).
T1 construct: gene algD; recombinant GMD
The assay can be described thus: NADH fluorescence assay, dilution series. The class given is biochemical.

Assay [2] has as its target T1, GDP-mannose dehydrogenase (GMD). The assay can be described thus: intact protein ESI-MS. The assay is classed as binding. Conditions: covalent; overnight incubation; single adduct; site Lys324 only predicted by docking.

T1 sequence (P11759 whole entry): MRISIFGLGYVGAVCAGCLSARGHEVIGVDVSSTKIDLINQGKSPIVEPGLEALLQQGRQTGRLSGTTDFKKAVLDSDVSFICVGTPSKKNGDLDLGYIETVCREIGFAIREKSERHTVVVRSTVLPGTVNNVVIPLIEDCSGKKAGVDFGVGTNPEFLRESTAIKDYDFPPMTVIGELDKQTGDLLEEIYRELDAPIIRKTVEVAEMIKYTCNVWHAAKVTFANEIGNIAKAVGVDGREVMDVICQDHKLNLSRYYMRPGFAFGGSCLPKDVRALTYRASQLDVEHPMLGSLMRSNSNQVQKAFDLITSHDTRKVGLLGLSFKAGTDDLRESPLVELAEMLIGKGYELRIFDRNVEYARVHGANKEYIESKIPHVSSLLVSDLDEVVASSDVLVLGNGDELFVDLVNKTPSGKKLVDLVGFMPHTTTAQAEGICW

The IC50 is the concentration that inhibits the measured activity by half. In assay [1], `CC(=O)C1=C(O)C=C2Oc3c4c(c(C)c(O)c3[C@@]2(C)C1=O)O/C(=C\c1ccc(O)cc1)C4=O` [compound 13, 13] had an IC50 of 16.7 ± 2.12 µM. Besides, the “intact protein ESI-MS” value in assay [2] is “ESI-MS indicated clear evidence of a single GMD-13 adduct”.
